# Columns and labels:
# Assay type in all cases: in vivo
# [1] = tested on: Italian ryegrass (Lolium multiflorum); assay: Test C pre-/postemergence plant response
# Outline: (§1)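 Visual rating vs untreated controls, 0 (no effect) to 100 (complete control), after 15–25 days in a controlled growth environment. Pre- and postemergence treatments; post plants at 1- to 4-leaf stage, 2–18 cm. Formulation: non-phytotoxic solvent mix plus surfactant.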
# [2] = tested on: canarygrass (Phalaris minor); assay: Test C pre-/postemergence plant response; conditions: Preemergence
# Outline: as §1
# [3] = tested on: pigweed (Amaranthus retroflexus); assay: Test C pre-/postemergence plant response
# Outline: as §1
# [4] = tested on: downy bromegrass (Bromus tectorum); assay: Test C pre-/postemergence plant response
# Outline: as §1
# [5] = tested on: spring wheat (Triticum aestivum); assay: Test C pre-/postemergence plant response
# Outline: as §1
# [6] = tested on: wild mustard (Sinapis arvensis); assay: Test C pre-/postemergence plant response
# Outline: as §1
# [7] = tested on: green foxtail (Setaria viridis); assay: Test C pre-/postemergence plant response
# Outline: as §1
# [8] = tested on: annual bluegrass (Poa annua); assay: Test C pre-/postemergence plant response
# Outline: as §1
# wild oat (Avena fatua) = assay: Test C pre-/postemergence plant response
# Outline: as §1
# [9] = tested on: winter wheat (Triticum aestivum); assay: Test C pre-/postemergence plant response
# Outline: as §1
# [10] = tested on: windgrass (Apera spica-venti); assay: Test C pre-/postemergence plant response
# Outline: as §1
# [11] = tested on: blackgrass (Alopecurus myosuroides); assay: Test C pre-/postemergence plant response
# Outline: as §1
# [12] = tested on: winter barley (Hordeum vulgare); assay: Test C pre-/postemergence plant response
# Outline: as §1
# [13] = tested on: canarygrass (Phalaris minor); assay: Test B postemergence plant response; conditions: for Plant response rating, Canarygrass: Postemergence
# Outline: (§2)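 Test compounds were applied postemergence to plants 2 to 18 cm tall (1- to 4-leaf stage). After 13 to 15 days in a greenhouse, each species was visually compared with untreated controls and rated 0 (no effect) to 100 (complete control).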
# [14] = tested on: chickweed (Stellaria media); assay: Test B postemergence plant response; conditions: for Plant response rating, Chickweed: Postemergence, scale 0 to 100
# Outline: as §2
# [15] = tested on: windgrass (Apera spica-venti); assay: Test B postemergence plant response; conditions: for Plant response rating, Windgrass: Postemergence
# Outline: as §2
# [16] = tested on: winter barley (Hordeum vulgare); assay: Test B postemergence plant response; conditions: for Plant response rating, Barley: Postemergence
# Outline: as §2
# [17] = Postemergence, 8 g ai/ha, scale 0 to 100, 0 no effect, 100 complete control
# [18] = Postemergence, 16 g ai/ha, scale 0 to 100, 0 no effect, 100 complete control
# [19] = Postemergence, 31 g ai/ha, scale 0 to 100, 0 no effect, 100 complete control
# [20] = Postemergence, 62 g ai/ha, scale 0 to 100, 0 no effect, 100 complete control
# [21] = Preemergence, 8 g ai/ha, scale 0 to 100 (0 no effect, 100 complete control)
# [22] = Preemergence, 16 g ai/ha, scale 0 to 100 (0 no effect, 100 complete control)
# [23] = Preemergence, 31 g ai/ha, scale 0 to 100 (0 no effect, 100 complete control)
# [24] = Preemergence, 62 g ai/ha, scale 0 to 100, 0 no effect, 100 complete control
# [25] = 8 g ai/ha, postemergence, 0-100 scale
# [26] = 31 g ai/ha, scale 0 to 100, 0 no effect, 100 complete control
smiles,measurement,setting,value
CCc1cc(-c2ccc(C(F)(F)F)cc2)nn1-c1c(OS(C)(=O)=O)cnn(C)c1=O [Compound 19],"Plant response rating, Ryegrass, Italian",[1]; [17],60
same,"Plant response rating, Ryegrass, Italian",[1]; [18],100
same,"Plant response rating, Ryegrass, Italian",[1]; [19],100
same,"Plant response rating, Ryegrass, Italian",[1]; [20],100
same,"Plant response rating, Ryegrass, Italian",[1]; [21],80
same,"Plant response rating, Ryegrass, Italian",[1]; [22],100
same,"Plant response rating, Ryegrass, Italian",[1]; [23],100
same,"Plant response rating, Ryegrass, Italian",[1]; [24],100
same,"Plant response rating, Canarygrass","[2]; 8 g ai/ha, scale 0 to 100 (0 no effect, 100 complete control)",65
same,"Plant response rating, Canarygrass","[2]; 16 g ai/ha, scale 0 to 100 (0 no effect, 100 complete control)",90
same,"Plant response rating, Canarygrass","[2]; 31 g ai/ha, scale 0 to 100 (0 no effect, 100 complete control)",98
same,"Plant response rating, Canarygrass","[2]; 62 g ai/ha, scale 0 to 100, 0 no effect, 100 complete control",100
same,"Plant response rating, Pigweed",[3]; [17],0
same,"Plant response rating, Pigweed",[3]; [18],0
same,"Plant response rating, Pigweed",[3]; [19],0
same,"Plant response rating, Pigweed",[3]; [20],0
same,"Plant response rating, Pigweed",[3]; [21],0
same,"Plant response rating, Pigweed",[3]; [22],30
same,"Plant response rating, Pigweed",[3]; [23],50
same,"Plant response rating, Pigweed",[3]; [24],75
same,"Plant response rating, Bromegrass, Downy",[4]; [17],40
same,"Plant response rating, Bromegrass, Downy",[4]; [18],65
same,"Plant response rating, Bromegrass, Downy",[4]; [19],98
same,"Plant response rating, Bromegrass, Downy",[4]; [20],100
same,"Plant response rating, Bromegrass, Downy",[4]; [21],30
same,"Plant response rating, Bromegrass, Downy",[4]; [22],65
same,"Plant response rating, Bromegrass, Downy",[4]; [23],75
same,"Plant response rating, Bromegrass, Downy",[4]; [24],95
same,"Plant response rating, Wheat, Spring",[5]; [17],70
same,"Plant response rating, Wheat, Spring",[5]; [18],80
same,"Plant response rating, Wheat, Spring",[5]; [19],90
same,"Plant response rating, Wheat, Spring",[5]; [20],100
same,"Plant response rating, Wheat, Spring",[5]; [21],0
same,"Plant response rating, Wheat, Spring",[5]; [22],40
same,"Plant response rating, Wheat, Spring",[5]; [23],60
same,"Plant response rating, Wheat, Spring",[5]; [24],75
same,"Plant response rating, Mustard, Wild",[6]; [17],0
same,"Plant response rating, Mustard, Wild",[6]; [18],20
same,"Plant response rating, Mustard, Wild",[6]; [19],20
same,"Plant response rating, Mustard, Wild",[6]; [20],20
same,"Plant response rating, Mustard, Wild",[6]; [21],0
same,"Plant response rating, Mustard, Wild",[6]; [22],0
same,"Plant response rating, Mustard, Wild",[6]; [23],0
same,"Plant response rating, Mustard, Wild",[6]; [24],0
same,"Plant response rating, Foxtail, Green",[7]; [17],95
same,"Plant response rating, Foxtail, Green",[7]; [18],100
same,"Plant response rating, Foxtail, Green",[7]; [19],100
same,"Plant response rating, Foxtail, Green",[7]; [20],100
same,"Plant response rating, Foxtail, Green",[7]; [21],20
same,"Plant response rating, Foxtail, Green",[7]; [22],100
same,"Plant response rating, Foxtail, Green",[7]; [23],100
same,"Plant response rating, Foxtail, Green",[7]; [24],100
same,"Plant response rating, Bluegrass",[8]; [17],0
same,"Plant response rating, Bluegrass",[8]; [18],0
same,"Plant response rating, Bluegrass",[8]; [19],25
same,"Plant response rating, Bluegrass",[8]; [20],35
same,"Plant response rating, Bluegrass",[8]; [22],0
same,"Plant response rating, Oat, Wild",wild oat (Avena fatua); [17],100
same,"Plant response rating, Oat, Wild",wild oat (Avena fatua); [18],100
same,"Plant response rating, Oat, Wild",wild oat (Avena fatua); [19],100
same,"Plant response rating, Oat, Wild",wild oat (Avena fatua); [20],100
same,"Plant response rating, Oat, Wild",wild oat (Avena fatua); [21],65
same,"Plant response rating, Oat, Wild",wild oat (Avena fatua); [22],65
same,"Plant response rating, Oat, Wild",wild oat (Avena fatua); [23],80
same,"Plant response rating, Oat, Wild",wild oat (Avena fatua); [24],95
same,"Plant response rating, Wheat, Winter",[9]; [17],20
same,"Plant response rating, Wheat, Winter",[9]; [18],80
same,"Plant response rating, Wheat, Winter",[9]; [19],90
same,"Plant response rating, Wheat, Winter",[9]; [20],100
same,"Plant response rating, Wheat, Winter",[9]; [21],10
same,"Plant response rating, Wheat, Winter",[9]; [22],50
same,"Plant response rating, Wheat, Winter",[9]; [23],60
same,"Plant response rating, Wheat, Winter",[9]; [24],90
same,"Plant response rating, Windgrass",[10]; [17],80
same,"Plant response rating, Windgrass",[10]; [18],100
same,"Plant response rating, Windgrass",[10]; [19],100
same,"Plant response rating, Windgrass",[10]; [20],100
same,"Plant response rating, Windgrass",[10]; [21],100
same,"Plant response rating, Windgrass",[10]; [22],100
same,"Plant response rating, Windgrass",[10]; [23],100
same,"Plant response rating, Windgrass",[10]; [24],100
same,"Plant response rating, Blackgrass",[11]; [17],75
same,"Plant response rating, Blackgrass",[11]; [18],100
same,"Plant response rating, Blackgrass",[11]; [19],100
same,"Plant response rating, Blackgrass",[11]; [20],100
same,"Plant response rating, Blackgrass",[11]; [21],80
same,"Plant response rating, Blackgrass",[11]; [22],100
same,"Plant response rating, Blackgrass",[11]; [23],100
same,"Plant response rating, Blackgrass",[11]; [24],100
same,"Plant response rating, Barley, Winter",[12]; [17],20
same,"Plant response rating, Barley, Winter",[12]; [18],50
same,"Plant response rating, Barley, Winter",[12]; [19],100
same,"Plant response rating, Barley, Winter",[12]; [20],100
same,"Plant response rating, Barley, Winter",[12]; [21],20
same,"Plant response rating, Barley, Winter",[12]; [22],40
same,"Plant response rating, Barley, Winter",[12]; [23],75
same,"Plant response rating, Barley, Winter",[12]; [24],80
same,Canarygrass plant response rating,[13]; [25],0
same,"Plant response rating, Canarygrass","[13]; 16 g ai/ha, scale 0 to 100",20
same,"Plant response rating, Canarygrass",[13]; [26],20
same,"Plant response rating, Canarygrass","[13]; 62 g ai/ha, scale 0 to 100",100
same,Chickweed plant response rating,[14]; [25],0
same,"Plant response rating, Chickweed",[14]; 16 g ai/ha,0
same,"Plant response rating, Chickweed",[14]; 62 g ai/ha,0
same,Windgrass plant response rating,[15]; [25],90
same,"Plant response rating, Windgrass","[15]; 16 g ai/ha, scale 0 to 100",95
same,"Plant response rating, Windgrass",[15]; [26],100
same,"Plant response rating, Windgrass","[15]; 62 g ai/ha, scale 0 to 100",100
same,Barley plant response rating,[16]; [25],0
same,"Plant response rating, Barley","[16]; 16 g ai/ha, scale 0 to 100, 0 no effect, 100 complete control",5
same,"Plant response rating, Barley",[16]; [26],5
same,"Plant response rating, Barley","[16]; 62 g ai/ha, scale 0 to 100",90

# — patent US20100267561A1, “HERBICIDAL PYRIDAZINONE DERIVATIVES” (priority 2007, published 2010)
